Experimental data from ChEMBL document CHEMBL3832761, “MMV Pathogen Box Bioactivity Data” (2017).
≈ marks a conversion by molar mass, not a printed value.

Key:
Plasmodium falciparum [1] = test: Antimalarial activity: Asexual Blood Stage Plasmodium falciparum 3D7 IC50 (uM); type: functional, organism-based
Plasmodium falciparum [2] = test: Antimalarial activity: Asexual Blood Stage Plasmodium falciparum Dd2 IC50 (uM); type: functional, organism-based
Plasmodium falciparum [3] = test: Antimalarial activity: Asexual Blood Stage Plasmodium falciparum W2 IC50 (uM); type: functional, organism-based
Plasmodium berghei = test: Antimalarial activity: Liver Stage Plasmodium berghei sporozoite Luciferase assay: inhibition at 10 uM (%); type: functional
Plasmodium falciparum [4] = test: Antimalarial activity: Gametocytes Plasmodium falciparum NF54 Gametocytes Stage V: inhibition at 10 uM (%); type: functional
HepG2 [5] = test: HepG2 inhibition at 10 uM (%) Cytotoxicity; type: functional; conditions: Homo sapiens
[6] = test system: Mycobacterium tuberculosis; test: AntiMycobacterium tuberculosis activity Non-Replicating form: Average MIC90 (uM); type: functional
[7] = test system: Mycobacterium tuberculosis; test: AntiMycobacterium tuberculosis activity 1-week GAST/Fe MIC (uM); type: functional; conditions: 168 h
[8] = test system: Mycobacterium tuberculosis; test: AntiMycobacterium tuberculosis activity 2-week GAST/Fe MIC (uM); type: functional; conditions: 336 h
[9] = test system: Mycobacterium tuberculosis; test: AntiMycobacterium tuberculosis activity 1-week 7H9/ADC/Tw MIC (uM); type: functional; conditions: 168 h
[10] = test system: Mycobacterium tuberculosis; test: AntiMycobacterium tuberculosis activity 2-week 7H9/ADC/Tw MIC (uM); type: functional; conditions: 336 h
[11] = test system: Mycobacterium tuberculosis; test: AntiMycobacterium tuberculosis activity 2-week Alamar Blue 7H9/ADC/Tw MIC (uM); type: functional; conditions: 336 h
[12] = test system: Mycobacterium tuberculosis; test: AntiMycobacterium tuberculosis activity 1-week 7H9/glucose/BSA/Tx MIC (uM); type: functional; conditions: 168 h
[13] = test system: Mycobacterium tuberculosis; test: AntiMycobacterium tuberculosis activity 2-week 7H9/glucose/BSA/Tx MIC (uM); type: functional; conditions: 336 h
[14] = test system: Mycobacterium tuberculosis; test: AntiMycobacterium tuberculosis activity 1-week 7H9/DPPC/cholesterol/BSA/Tx MIC (uM); type: functional; conditions: 168 h
[15] = test system: Mycobacterium tuberculosis; test: AntiMycobacterium tuberculosis activity 2-week 7H9/DPPC/cholesterol/BSA/Tx MIC (uM); type: functional; conditions: 336 h
[16] = test system: Mycobacterium tuberculosis; test: AntiMycobacterium tuberculosis activity 1-week 7H9/cholesterol/BSA/Tx MIC (uM); type: functional; conditions: 168 h
[17] = test system: Mycobacterium tuberculosis; test: AntiMycobacterium tuberculosis activity 2-week Alamar Blue 7H9/cholesterol/BSA/Tx MIC (uM); type: functional; conditions: 336 h
[18] = test system: Mycobacterium tuberculosis; test: (§1) AntiMycobacterium tuberculosis activity day 10 in 7H9/2.5mM butyrate/pH6/0.1mM nitrite MIC90 (uM); type: functional; conditions: 240 h
[19] = test system: Mycobacterium tuberculosis; test: AntiMycobacterium tuberculosis activity day 21 in 7H9/2.5mM butyrate/pH6/0.1mM nitrite MIC90 (uM); type: functional; conditions: 504 h
[20] = test system: Mycobacterium tuberculosis; test: as §1; type: functional; conditions: 240 h; remark: listed apart in the source
[21] = test system: Mycobacterium tuberculosis; test: AntiMycobacterium tuberculosis activity day 21 MIC99 in 7H9/2.5mM butyrate/pH6/0.1mM nitrite MIC99 (uM); type: functional; conditions: 504 h
[22] = test system: Mycobacterium tuberculosis; test: AntiMycobacterium tuberculosis activity Replicating form: Average MIC90 (uM); type: functional
HepG2 [23] = test: HepG2 CC50 (uM) Cytotoxicity; type: functional; conditions: Homo sapiens

| SMILES | IC50 (Plasmodium falciparum [1]) [nM] | IC50 (Plasmodium falciparum [2]) [nM] | IC50 (Plasmodium falciparum [3]) [nM] | Inhibition (Plasmodium berghei) [%] | Inhibition (Plasmodium falciparum [4]) [%] | inhibition at 10 µM (HepG2 [5]) [%] | MIC90 [6] [µM] | MIC [7] [µM] | MIC [8] [µM] | MIC [9] [µM] | MIC [10] [µM] | MIC [11] [µM] | MIC [12] [µM] | MIC [13] [µM] | MIC [14] [µM] | MIC [15] [µM] | MIC [16] [µM] | MIC [17] [µM] | MIC90 [18] [µM] | MIC90 [19] [µM] | also measured |
| --- | --- | --- | --- | --- | --- | --- | --- | --- | --- | --- | --- | --- | --- | --- | --- | --- | --- | --- | --- | --- | --- |
| CCOc1ccccc1C(=O)Nc1cccc(-c2nc3ncccn3c2C)c1 | 1270 | 2720 | 1100 | 94 | 42.5 | 4 |  |  |  |  |  |  |  |  |  |  |  |  |  |  |  |
| CC1(C)Cc2c(c(N3CCOCC3)nc3snc(Br)c23)CO1 | 290 | 260 | 370 | 4 | 1 | 4 |  |  |  |  |  |  |  |  |  |  |  |  |  |  |  |
| Cc1cc(NC(=O)c2ccc(S(=O)(=O)N(Cc3ccccc3)C(C)C)cc2)no1 | 980 | 1360 | 690 | 72 | 12.9 | 13 |  |  |  |  |  |  |  |  |  |  |  |  |  |  |  |
| COc1cc2ncnc(NC3CCN(Cc4ccccc4)CC3)c2cc1OC | 620 | 970 | 1560 | 46 | 3 | 36 |  |  |  |  |  |  |  |  |  |  |  |  |  |  |  |
| Cc1cc(Cl)c(S(=O)(=O)N2CCCC2)cc1OCC(=O)NC1CCCCC1 | 300 | 210 | 160 | 81 | 0 | 32 |  |  |  |  |  |  |  |  |  |  |  |  |  |  |  |
| CC1CCCN(C(=O)C(C)Nc2cc(Cl)ccc2N2CCOCC2)C1 (configuration not stated) | 520 | 1320 | 880 | 46 | 9.53 | 13 |  |  |  |  |  |  |  |  |  |  |  |  |  |  |  |
| CCn1cnc2c(Nc3cc(F)cc(F)c3)nc(C#N)nc21 | 900 | 940 | 940 | 0 | 3 | 5 |  |  |  |  |  |  |  |  |  |  |  |  |  |  |  |
| O=C(NC1CC1)c1ccc(CSCc2ccccc2Cl)o1 | 1420 | > 2000 |  | 96 | 14.9 | 33 |  |  |  |  |  |  |  |  |  |  |  |  |  |  |  |
| COc1cccc(OC)c1C(=O)Nc1ccc(Cl)c(-c2nc3ccccc3s2)c1 |  |  |  |  |  |  | 55.1 (≈ 23.4 µg/mL) | 6.25 (≈ 2.66 µg/mL) | 9.4 (≈ 3.99 µg/mL) | 37 (≈ 15.7 µg/mL) | 37 (≈ 15.7 µg/mL) | 37 (≈ 15.7 µg/mL) | 25 (≈ 10.6 µg/mL) | 25 (≈ 10.6 µg/mL) | 12.5 (≈ 5.31 µg/mL) | 12.5 (≈ 5.31 µg/mL) | 12.5 (≈ 5.31 µg/mL) | 19 (≈ 8.07 µg/mL) | > 50 | > 50 | MIC90 [20]: > 50 µM; MIC [21]: > 50 µM; MIC90 [22]: 26.1 µM (≈ 11.1 µg/mL); CC50 (HepG2 [23]): > 100 µM |
| C[C@]1(COc2ccc(N3CCC(Oc4ccc(OC(F)(F)F)cc4)CC3)cc2)Cn2cc([N+](=O)[O-])nc2O1 |  |  |  |  |  |  | 0.2 (≈ 0.107 µg/mL) | 0.1 (≈ 0.0534 µg/mL) | 0.15 (≈ 0.0802 µg/mL) | 0.07 (≈ 0.0374 µg/mL) | 0.15 (≈ 0.0802 µg/mL) | 0.15 (≈ 0.0802 µg/mL) | 0.2 (≈ 0.107 µg/mL) | 0.05 (≈ 0.0267 µg/mL) | < 0.02 | 0.1 (≈ 0.0534 µg/mL) | 0.05 (≈ 0.0267 µg/mL) | 0.6 (≈ 0.321 µg/mL) | 0.39 (≈ 0.208 µg/mL) | 12.5 (≈ 6.68 µg/mL) | MIC90 [20]: > 50 µM; MIC [21]: > 50 µM; MIC90 [22]: 0.08 µM (≈ 0.0428 µg/mL); CC50 (HepG2 [23]): 72.5 µM |
| Cc1cnc(N2CCN[C@@H](Cc3ccccc3)C2)nc1Oc1ccc(-n2ccnc2)cc1 |  |  |  |  |  |  | 27.7 (≈ 11.8 µg/mL) | 6.25 (≈ 2.67 µg/mL) | 9.4 (≈ 4.01 µg/mL) | 25 (≈ 10.7 µg/mL) | 37 (≈ 15.8 µg/mL) | 19 (≈ 8.1 µg/mL) | 19 (≈ 8.1 µg/mL) | 37 (≈ 15.8 µg/mL) | 12.5 (≈ 5.33 µg/mL) | 37 (≈ 15.8 µg/mL) | 12.5 (≈ 5.33 µg/mL) | 50 (≈ 21.3 µg/mL) | > 50 | > 50 | MIC90 [20]: > 50 µM; MIC [21]: > 50 µM; MIC90 [22]: 8.88 µM (≈ 3.79 µg/mL); CC50 (HepG2 [23]): 14.1 µM |
| Cc1nnc(NCc2cccc(Cl)c2)c2ccccc12 |  |  |  |  |  |  | 4.61 (≈ 1.31 µg/mL) | 0.2 (≈ 0.0568 µg/mL) | 0.6 (≈ 0.17 µg/mL) | 50 (≈ 14.2 µg/mL) | > 50 | 1.56 (≈ 0.443 µg/mL) | > 50 | > 50 | ≥ 50 | > 50 | 19 (≈ 5.39 µg/mL) | > 50 | 25 (≈ 7.09 µg/mL) | > 50 | MIC90 [20]: > 50 µM; MIC [21]: > 50 µM; MIC90 [22]: > 100 µM; CC50 (HepG2 [23]): 76 µM |
| COc1ccc(CCN2CCC(NCc3cccc(N(C)C)c3)CC2)cc1 | 1200 | 3050 | 4470 | 67 | 4.11 | 6 |  |  |  |  |  |  |  |  |  |  |  |  |  |  |  |
| c1cncc(NCc2ccc(-c3cc4ccncc4cc3OC3CCNCC3)s2)c1 |  |  |  |  |  |  | 58.7 (≈ 24.5 µg/mL) | 3.13 (≈ 1.3 µg/mL) | 4.7 (≈ 1.96 µg/mL) | 50 (≈ 20.8 µg/mL) | 37 (≈ 15.4 µg/mL) | 12.5 (≈ 5.21 µg/mL) | ≥ 50 | ≥ 50 | 50 (≈ 20.8 µg/mL) | 50 (≈ 20.8 µg/mL) | 50 (≈ 20.8 µg/mL) | 37 (≈ 15.4 µg/mL) | > 50 | > 50 | MIC90 [20]: > 50 µM; MIC [21]: > 50 µM; MIC90 [22]: 11.8 µM (≈ 4.92 µg/mL); CC50 (HepG2 [23]): 8 µM |
| COc1ccc(Cn2cnc3c(-c4ccco4)nc(Cl)nc32)cc1 |  |  |  |  |  |  | 8.43 (≈ 2.87 µg/mL) | 0.78 (≈ 0.266 µg/mL) | 1.56 (≈ 0.532 µg/mL) | > 50 | > 50 | 19 (≈ 6.47 µg/mL) | > 50 | > 50 | 4.7 (≈ 1.6 µg/mL) | > 50 | 6.25 (≈ 2.13 µg/mL) | 3.13 (≈ 1.07 µg/mL) | 50 (≈ 17 µg/mL) | > 50 | MIC90 [20]: > 50 µM; MIC [21]: > 50 µM; MIC90 [22]: > 100 µM; CC50 (HepG2 [23]): > 100 µM |
| Nc1ncc(Br)cc1-c1nc2cc(Cl)cnc2[nH]1 | 1500 | 2240 | 2400 | 89 | 0 | 42 |  |  |  |  |  |  |  |  |  |  |  |  |  |  |  |
